Test results published in ChEMBL document CHEMBL4177734, “Cytotoxic quinazoline alkaloids from the seeds of Peganum harmala” (Bioorg Med Chem Lett, 2018).

Assays:
Format in all cases: functional, cell-based
SGC-7901 = assay: Cytotoxicity against human SGC7901 cells assessed as reduction in cell viability by MTT assay
HL-60 = assay: Cytotoxicity against human HL60 cells assessed as reduction in cell viability by trypan blue method
PC-3 = assay: Cytotoxicity against human PC3 cells assessed as reduction in cell viability by MTT assay
[1] = Cytotoxicity against mouse Sp2/0-Ag14 cells
[2] = Cytotoxicity against Med-merk carcinoma cells (unknown origin)
[3] = Homo sapiens, PC-3, read-out: IC50
[4] = Homo sapiens, HL-60, read-out: IC50

| SMILES | IC50 (SGC-7901) | IC50 (HL-60; hl-60) | IC50 (PC-3; [3]) | IC50 (HL-60; [4]) | IC50 (PC-3; pc-3) | IC50 [1] | IC50 [2] |
| --- | --- | --- | --- | --- | --- | --- | --- |
| O[C@@H]1CCN2Cc3ccccc3N=C12 | Not Active | Not Active | 15.4 µM | – | – | – | – |
| O=c1c2ccccc2nc2n1CC[C@@H]2O | Not Active | – | – | 67.8 µM | Not Active | – | – |
| COC(=O)CCn1cnc2ccccc2c1=O | Not Active | Not Active | – | – | Not Active | – | – |
| O=c1c2cc(O)ccc2nc2n1CC[C@H]2O | Not Active | Not Active | – | – | Not Active | – | – |
| O=c1c2cc(O)ccc2nc2n1CC[C@@H]2O | Not Active | Not Active | – | – | Not Active | – | – |
| O=c1c2ccccc2nc2n1CC[C@@H]2O[C@@H]1O[C@H](CO[C@@H]2O[C@H](CO)[C@@H](O)[C@H](O)[C@H]2O)[C@@H](O)[C@H](O)[C@H]1O | Not Active | Not Active | – | – | Not Active | – | – |
| O=c1c2ccccc2nc2n1CC[C@@H]2O[C@@H]1O[C@H](CO)[C@@H](O)[C@H](O)[C@H]1O | Not Active | Not Active | – | – | Not Active | – | – |
| Nc1ccccc1CN1CC[C@@H](O[C@@H]2O[C@H](CO[C@@H]3O[C@H](CO)[C@@H](O)[C@H](O)[C@H]3O)[C@@H](O)[C@H](O)[C@H]2O)C1=O | Not Active | Not Active | – | – | Not Active | – | – |
| O=c1[nH]c(CCCO)nc2ccccc12 | Not Active | Not Active | – | – | Not Active | – | – |
| O=c1c2ccccc2nc2n1CC[C@H]2O[C@@H]1O[C@H](CO[C@@H]2O[C@H](CO)[C@@H](O)[C@H](O)[C@H]2O)[C@@H](O)[C@H](O)[C@H]1O | Not Active | Not Active | – | – | Not Active | – | – |
| Nc1ccccc1CN1CC[C@H](O[C@@H]2O[C@H](CO[C@@H]3O[C@H](CO)[C@@H](O)[C@H](O)[C@H]3O)[C@@H](O)[C@H](O)[C@H]2O)C1=O | Not Active | – | – | 42.8 µM | Not Active | – | – |
| Nc1ccccc1CN1CC[C@@H](O)C1=O | Not Active | – | – | 42.3 µM | Not Active | – | – |
| Nc1ccccc1CN1CC[C@H](O)C1=O | Not Active | – | – | 42.3 µM | Not Active | – | – |
| O=c1c2ccccc2nc2n1CC[C@H]2O | Not Active | – | – | 67.8 µM | Not Active | – | – |
| O=c1c2ccccc2nc2n1CCC2O (racemic) | – | – | – | – | – | 19.2 µM | 25.3 µM |
| O=c1c2ccccc2nc2n1CCC2 [DEOXYVASICINONE] | Not Active | Not Active | – | – | Not Active | – | – |
| O=c1[nH]cnc2ccccc12 [QUINAZOLINONE] | Not Active | Not Active | – | – | Not Active | – | – |
| O[C@H]1CCN2Cc3ccccc3N=C12 [VASICINE] | Not Active | Not Active | 15.4 µM | – | – | – | – |
